Source: publication PMC11984924, “Dipeptidic Phosphonates: Potent Inhibitors of Pseudomonas aeruginosa Elastase B Showing Efficacy in a Murine Keratitis Model” (Advanced Science, 2025)

Legend:
zebrafish embryos = experiment: Zebrafish embryo toxicity; format: in vivo; conditions: up to 100 µM, up to five days post fertilization
Experimental: Table S8: Percent (%) inhibition of the metabolic activity of three human cell lines HepG2 (hepatocellular carcinoma cells), HEK293 (human embryonic kidney 293 cells) and A549 (lung carcinoma epithelial cells). Results are means and SD of at least two independent ex periments.
3.10 Evaluation of Zebrafish embryo toxicity
The experiment was performed according to a procedure described in the literature with minor modifications using zebrafish embryos of the AB wild -type line at 1 day post fertilization (dpf). A detailed protocol has been given in our recent publication.[16]
Starting exposure ar 2 dpf. Ten larvae were tested for each condition. Dpf: days post fertilization.
3.11 Tolerability study in male CD1 mice
This in vivo experiment was carried out at the CRO Selvita (Zagreb, Croatia). The study was performed in an AAALAC I- approved Facility. The standard study plan relating to this study was reviewed by the Ethics Committee (CARE- Zagreb) as required by International Laws/Regulations and Croatian Low on Animal Welfare (“The Animal Protection Act”, Official Gazette, NN 135/06 and NN 37/13) and Animal Welfare Officer. Animals were kept in solid […]
bottom cages ([…] S.p A., Italy, Type III polysulphone cage); 425 mm x 266 mm x 180 mm; 3 animals in each cage. The animals were kept on 4 cm thick layer of corn cob grit, […]
(1 picture or pasted object on this page, not shown here)

[1] = Plasma stability, Wistar rat; format: in vitro ADME; conditions: read-out: Rat Plasma t1/2
Experimental: To determine stability in plasma, the compound (1 µM) was incubated with pooled CD -1 […]
mouse/human/Wistar rat or Göttingen minipig plasma (Neo Biotech, Nanterre, France).
Samples were taken by mixing aliquots with 4 volumes of acetonitrile containing internal […]
standard (125 nM diphenhydramine). The plasma stability of procain, propantheline and diltiazem were determined in parallel to confirm the enzymatic activity. Samples were stored […]
on ice until the end of the incubation and precipitated protein was removed by centrifugation […]
(15 min, 4 °C, 4,000 g, two centrifugation steps). Concentration of the remaining test compound at the different time points was analyzed by HPLC-MS/MS (TSQ Quantum Access MAX, […]
(§1) Thermo Fisher, Dreieich, Germany) and used to determine half-life (t1/2).
(§2) Table S2: Additional in vitro ADMET data for selected dipeptides. n.d.: not determined.
(§3) Kinetic Liver S9 Clint [µL/mg/min] Plasma t1/2 [min] LogD7.4 […]
(§4) pH 7.4 [µM] Mouse Human Mouse Human

[2] = Stability in mouse liver microsomes; format: in vitro ADME; conditions: read-out: Mouse Liver Microsomes t1/2
Experimental: Samples were stored on ice until the end of the incubation and precipitated protein was removed by centrifugation (15 min, 4 °C, 4,000 g). Concentration of the remaining test […]
compound at the different time points was analyzed by HPLC-MS/MS (TSQ Quantum Access […]
MAX, Thermo Fisher, Dreieich, Germany) and used to determine half -life (t1/2) and intrinsic […]
Species profiling was conducted as above using 0.5 mg/mL pooled mouse, rat or minipig liver microsomes (Xenotech, Kansas City, USA) with 2 mM NADPH and 10 mM MgCl2 and testosterone, verapamil and ketoconazole as reference compounds. […]
as §1, §2, §3, §4

[3] = target: T1, 5‐hydroxytryptamin transporter (5‐HTT) (Homo sapiens, UniProt P31645); experiment: SafetyScreen44: 5-HTT binding
T1 construct: Eurofins Cerep SA (CRO)
T1 sequence (P31645 whole entry): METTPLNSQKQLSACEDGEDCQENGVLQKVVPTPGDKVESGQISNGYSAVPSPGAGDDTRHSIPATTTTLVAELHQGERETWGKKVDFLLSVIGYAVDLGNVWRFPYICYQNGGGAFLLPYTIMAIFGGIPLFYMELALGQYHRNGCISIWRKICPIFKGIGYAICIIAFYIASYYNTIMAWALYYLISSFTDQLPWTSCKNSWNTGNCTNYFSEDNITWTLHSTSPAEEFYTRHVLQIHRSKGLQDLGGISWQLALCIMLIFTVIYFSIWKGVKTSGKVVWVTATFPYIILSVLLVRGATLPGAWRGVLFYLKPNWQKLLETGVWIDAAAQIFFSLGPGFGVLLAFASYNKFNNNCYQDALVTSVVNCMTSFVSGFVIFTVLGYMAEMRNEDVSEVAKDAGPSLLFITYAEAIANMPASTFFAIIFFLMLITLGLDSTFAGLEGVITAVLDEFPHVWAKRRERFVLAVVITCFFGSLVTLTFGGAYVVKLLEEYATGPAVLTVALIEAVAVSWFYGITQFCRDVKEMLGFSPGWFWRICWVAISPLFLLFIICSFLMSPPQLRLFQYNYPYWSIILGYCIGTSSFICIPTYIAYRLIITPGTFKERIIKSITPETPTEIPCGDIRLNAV
Description: Moreover, we explored the safety profile of frontrunner (R)‐30 in more detail in order to detect additional crucial off‐target interactions. For this purpose, we employed the SafetyScreen44 in vitro panel comprising selected binding, inhibition and uptake assays.^[ [35] ^] The panel is a specialized pharmacological profiling tool that tests compounds against 44 key molecular targets, aiming to identify potential safety risks early in drug discovery. […]
The off-target Safety Screen44TM was performed by the CRO Eurofins Cerep SA (Celle-
L'Evescault, France) according to their protocols.[13] […]
MMP-1 MMP-2 MMP-3 TACE (ADAM17)
Compound [% inhibition at [% inhibition at [% inhibition at [% inhibition at 100

[4] = (R)-30 levels in serum of keratitis mice; format: in vivo; conditions: C57BL/6, mouse, 5 µL of 1 mg/mL (R)-30 per dose (nine doses, every 8 h), keratitis mice after topical ocular dosing
Experimental: 3.15 Bioanalytical sample preparation of keratitis samples for determination of
concentration of ( R)-30 in eye and serum
All PD serum and eye homogenate samples were analyzed via HPLC -MS/MS using an Agilent
1290 Infinity II HPLC system and coupled to an AB Sciex QTrap6500+ mass spectrometer.
First, a calibration curve was prepared by spiking different concentrations of (R)-30 into the
respective matrix (mouse serum (pooled, from CD -1 mice) for plasma samples, isotonic
sodium chloride solution for eye homogenate samples). Caffeine was used as an internal
standard. In addition, quality control samples (QCs) were prepared for (R)-30 with the
respective matrix. The following extraction procedure was used: 7.5 μL of a serum sample
(calibration samples, QCs or PD samples) was extracted with 37.5 μL of methanol containing
12.5 ng/mL of caffeine as internal standard for 5 min at 2,000 r pm on an Eppendorf MixMate®
vortex mixer. Then samples (serum) were spun down at 13,000 rpm for 5 min. Supernatants
were transferred to standard HPLC-glass vials. 50 μL of an eye homogenate sample […]
standard were analyzed using MultiQuant 3.0 software (AB Sciex). […]
for quantification are marked with a ‘Q’ in the table, the other MS/MS pairs for the respective
compound were used for qualification. Peaks of PD samples were quantified using the
calibration curve. The accuracy of the calibration curve was determined using QC s […]

| Compound | Zebrafish embryo toxicity (zebrafish embryos) | half-life at 1 µM [1] | half-life at 1 µM [2] | inhibition at 100 µM [3] | concentration at 3 days post infection [4] |
| --- | --- | --- | --- | --- | --- |
| CC(=O)c1ccc(NC(=O)[C@@H](NC(=O)C(CC(C)C)P(=O)(O)O)C(C)C)cc1 (some centres unmarked) [compound 30] | no signs of toxicity | > 4 h | > 2 h |  |  |
| CC(=O)c1ccc(NC(=O)[C@@H](NC(=O)[C@@H](CC(C)C)P(=O)(O)O)C(C)C)cc1 [(R)‐30] |  |  |  | 84.8% | < 500 nM |
